System: HepG2 hepatocytes
Assay: Inhibition of cholesterol synthesis in HepG2 hepatocytes (secreted cholesterol and cholesteryl ester, AmplexRed)
Type: cell-based
Method: HepG2 hepatocytes were used as a model to study the inhibition of cholesterol synthesis according to the procedures described in Dashti, N., et al., J. Lipid Res. 28:423-436 (1987) and Mohammadi, A., et al., Arterioscler. Thromb. Vasc. Biol., […]:783-793 (1998). […] Amounts of secreted cholesterol and cholesteryl ester are measured from acetate fed hepatocyte culture media using a fluorescent indicator AmplexRed.
The same cholesterol inhibition model used in Example I was used to determine the cholesterol synthesis inhibition of theaflavins, including theaflavin and gallate esters of theaflavin.

| Structure (SMILES) | inhibition at 50 µg/mL (Homo sapiens, 0.05 mg/ml theaflavin, acetate fed HepG2 culture media, FIG. 1, read-out: inhibitory effect (cholesterol synthesis/release)) [%] | dose specific response of hepatocytes compared to Lipotor (same weight basis (tablet weight, 6.7% actives), HepG2, FIG. 1) | cholesterol inhibition activity (contribution among materials tested) (HepG2, dose response FIG. 2, materials of Table I) |
| --- | --- | --- | --- |
| O=c1c(O)cc([C@H]2Oc3cc(O)cc(O)c3C[C@H]2O)cc2c([C@H]3Oc4cc(O)cc(O)c4C[C@H]3O)cc(O)c(O)c12 [theaflavin, Theaflavin] | ~30 | comparable or slightly better than Lipotor® |  |
| O=C(O[C@@H]1Cc2c(O)cc(O)cc2O[C@@H]1c1cc(=O)c(O)c2c(O)c(O)cc([C@H]3Oc4cc(O)cc(O)c4C[C@H]3O)c2c1)c1cc(O)c(O)c(O)c1 [theaflavin-3-gallate] |  |  | provided much of the cholesterol inhibition activity |

From US20040097432A1, “Method of reducing cholesterol” (ACCESS BUSINESS GROUP INTERNATIONAL LLC., priority 2002, published 2004)
